Measured values reported in patent US20240409585A1, “MACROCYCLIC IMMUNOMODULATORS” (priority 2021, published 2024).
Numbered stars: 1 amine (or outer) side, 2 acyl side, 3 side chain; on linkers, the order of the positions; unused ones are H or OH. Bridge positions count the residues as written; N and C are the ends. Square brackets hold non-standard residues; d marks the D form. Peptide text beside a SMILES is read from it. * marks the point of attachment. ξ: configuration not given here. X39 = COc1cccc(-c2ccc(C[C@H](N[*:1])C(=O)[*:2])cc2)c1; Phe(3-CF3) = N[C@@H](Cc1cccc(C(F)(F)F)c1)C(=O)O; Phe(4-COOH) = N[C@@H](Cc1ccc(C(=O)O)cc1)C(=O)O; X16 = O=C([C@H](Cc1ccc2cnccc2c1)N[*:1])[*:2]; Bip = N[C@@H](Cc1ccc(-c2ccccc2)cc1)C(=O)O; Phe(3-Me) = Cc1cccc(C[C@H](N)C(=O)O)c1; Val(3-OH) = CC(C)(O)[C@H](N)C(=O)O; 3Pal = N[C@@H](Cc1cccnc1)C(=O)O; 4Pal = N[C@@H](Cc1ccncc1)C(=O)O; Cha = N[C@@H](CC1CCCCC1)C(=O)O; Cit = NC(=O)NCCC[C@H](N)C(=O)O; Ile(3ξ) = CCC(C)[C@H](N)C(=O)O; Thr(3ξ) = CC(O)[C@H](N)C(=O)O; NMeAbu = CC[C@H](NC)C(=O)O; Carboxymethyl = O=C(O)C*; NMeA = CN[C@@H](C)C(=O)O; Nle = CCCC[C@H](N)C(=O)O; Pra = C#CC[C@H](N)C(=O)O; Dab = NCC[C@H](N)C(=O)O; NH(CH2)3NH2 = NCCCN*

Molecular target: T1, PE-labeled human PD-L1-Ig binding to Jurkat cell line over-expressing human PD-1 (Jurkat-PD-1) (Homo sapiens, UniProt Q15116)
T1 construct: expressed in transfected cells; host or cells: Jurkat
T1 sequence (Q15116 25-288): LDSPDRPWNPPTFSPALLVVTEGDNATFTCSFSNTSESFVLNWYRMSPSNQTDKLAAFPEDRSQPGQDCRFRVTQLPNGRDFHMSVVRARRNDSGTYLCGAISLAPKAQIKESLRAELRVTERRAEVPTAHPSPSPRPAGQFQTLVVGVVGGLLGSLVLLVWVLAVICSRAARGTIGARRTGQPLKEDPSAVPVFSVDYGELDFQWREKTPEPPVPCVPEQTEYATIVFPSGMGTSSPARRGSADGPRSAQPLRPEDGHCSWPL
Assay: Jurkat-PD-1 Cell Binding High-Content Screening Assay (CBA): Method 1
Details: Jurkat-hPD-1 cells, PE-labeled PD-L1-Ig 20 nM final; read-out: Jurkat HPDL1 PD1 IC50 (uM) (Method 1)

In order of falling IC50:
1. CC(C)C[C@@H]1NC(=O)[C@H](CCN)NC(=O)[C@@H](CC(C)C)NC(=O)[C@H](C)N(C)C(=O)[C@H](Cc2c[nH]c3ccccc23)NC(=O)[C@H](Cc2ccc(-c3ccccc3)cc2)NC(=O)[C@H](C(C)C)NC(=O)[C@H](Cc2c[nH]c3ccccc23)NC(=O)[C@H](CC(=O)O)NC(=O)[C@H](Cc2ccc(O)cc2)NC(=O)[C@H](CC(N)=O)NC(=O)CSC[C@@H](C(=O)N[C@@H](C)C(N)=O)NC(=O)[C@H]([C@@H](C)O)NC(=O)[C@H](C(C)C)NC1=O [Compound 1263] ({CH2CO}-NYDWV[Bip]W[NMeA][dL][Dab]LVTCA-NH2; thioether N-14)  0.89 µM
2. CC[C@H]1C(=O)N[C@H](CC(C)C)C(=O)N[C@@H](CCN)C(=O)N[C@@H](CC2CCCCC2)C(=O)N[C@@H](C(C)(C)O)C(=O)N[C@@H](CO)C(=O)N[C@H](C(=O)N[C@@H](CCN)C(N)=O)CSCC(=O)N[C@@H](Cc2ccncc2)C(=O)N[C@@H](Cc2ccc(OCC(=O)O)cc2)C(=O)N[C@@H](CC(=O)O)C(=O)N[C@@H](Cc2cccc(C)c2)C(=O)N[C@@H](Cc2ccc(OCC(=O)O)cc2)C(=O)N[C@@H](Cc2ccc(-c3ccccc3)cc2)C(=O)N[C@@H](Cc2ccc(OCC(=O)O)cc2)C(=O)N1C [Compound 1837] ({CH2CO}-[4Pal]Y(Carboxymethyl)D[Phe(3-Me)]Y(Carboxymethyl)[Bip]Y(Carboxymethyl)[NMeAbu][dL][Dab][Cha][Val(3-OH)]SC[Dab]-NH2; thioether N-14)  0.47 µM
3. COc1cccc(-c2ccc(C[C@@H]3NC(=O)[C@H](C(C)C)NC(=O)[C@H](Cc4c[nH]c5ccccc45)NC(=O)[C@H](CC(=O)O)NC(=O)[C@H](Cc4ccc(O)cc4)NC(=O)[C@H](CC(N)=O)NC(=O)CSC[C@@H](C(=O)N[C@@H](C)C(N)=O)NC(=O)[C@H]([C@@H](C)O)NC(=O)[C@H](C(C)C)NC(=O)[C@H](CC(C)C)NC(=O)[C@H](CCN)NC(=O)[C@@H](CC(C)C)NC(=O)[C@H](C)N(C)C(=O)[C@H](CCCNC(=N)N)NC3=O)cc2)c1 [Compound 1211] ({CH2CO}-NYDWV[X39]R[NMeA][dL][Dab]LVTCA-NH2; thioether N-14)  0.37 µM
4. CC[C@H](C)[C@@H]1NC(=O)[C@H](CC(C)C)NC(=O)[C@H](CCCNC(=N)N)NC(=O)[C@@H](CC(C)C)NC(=O)[C@H](C)N(C)C(=O)[C@H](CCCNC(=N)N)NC(=O)[C@H](Cc2ccc(-c3ccccc3)cc2)NC(=O)[C@H](C(C)C)NC(=O)[C@H](Cc2c[nH]c3ccccc23)NC(=O)[C@H](CC(=O)O)NC(=O)[C@H](Cc2ccc(O)cc2)NC(=O)[C@H](Cc2ccccc2)NC(=O)CSC[C@@H](C(=O)N[C@@H](C)C(N)=O)NC(=O)[C@H]([C@@H](C)O)NC1=O [Compound 1118] ({CH2CO}-FYDWV[Bip]R[NMeA][dL]RLITCA-NH2; thioether N-14)  0.16 µM
5. CCC(C)[C@@H]1NC(=O)[C@H](Cc2ccc(-c3ccccc3)cc2)NC(=O)[C@H](C(C)C)NC(=O)[C@H](Cc2c[nH]c3ccccc23)NC(=O)[C@H](CC(=O)O)NC(=O)[C@H](Cc2ccc(O)cc2)NC(=O)[C@H](C(C)O)NC(=O)CSC[C@@H](C(=O)NCCCN)NC(=O)[C@H](C(C)O)NC(=O)[C@H](C(C)(C)O)NC(=O)[C@H](CC2CCCCC2)NC(=O)[C@H](CC(N)=O)NC(=O)[C@@H](CC(C)C)NC(=O)[C@H](C)N(C)C1=O (stereo partly drawn) [Compound 2266] ({CH2CO}-[Thr(3ξ)]YDWV[Bip][Ile(3ξ)][NMeA][dL]N[Cha][Val(3-OH)][Thr(3ξ)]C-{NH(CH2)3NH2}; thioether N-14)  0.15 µM
6. C#CC[C@H](NC(=O)CNC(=O)[C@@H]1CSCC(=O)N[C@@H]([C@@H](C)O)C(=O)N[C@@H](Cc2ccc(OCC(=O)O)cc2)C(=O)N[C@@H](CC(=O)O)C(=O)N[C@@H](Cc2cccc(C)c2)C(=O)N[C@@H](Cc2ccc(OCC(=O)O)cc2)C(=O)N[C@@H](Cc2ccc(-c3ccccc3)cc2)C(=O)N[C@@H](Cc2ccc(OCC(=O)O)cc2)C(=O)N(C)[C@@H](C)C(=O)N[C@H](CC(C)C)C(=O)N[C@@H](CCN)C(=O)N[C@@H](CC2CCCCC2)C(=O)N[C@@H](C(C)(C)O)C(=O)N[C@@H](CCC(=O)O)C(=O)N1)C(N)=O [Compound 1939] ({CH2CO}-TY(Carboxymethyl)D[Phe(3-Me)]Y(Carboxymethyl)[Bip]Y(Carboxymethyl)[NMeA][dL][Dab][Cha][Val(3-OH)]ECG[Pra]-NH2; thioether N-14)  0.11 µM
7. CC(C)C[C@@H]1NC(=O)[C@H](C)NC(=O)[C@@H](C)NC(=O)[C@H](C)N(C)C(=O)[C@H](CCC(=O)O)NC(=O)[C@H](Cc2ccc(-c3ccccc3)cc2)NC(=O)[C@H](CC(C)C)NC(=O)[C@H](Cc2c[nH]c3ccccc23)NC(=O)[C@H](CC(=O)O)NC(=O)[C@H](Cc2ccc(C(=O)O)cc2)NC(=O)[C@H](Cc2cccnc2)NC(=O)CSC[C@@H](C(=O)N[C@@H](C)C(N)=O)NC(=O)[C@H](CO)NC(=O)[C@H](C(C)C)NC1=O [Compound 1786] ({CH2CO}-[3Pal][Phe(4-COOH)]DWL[Bip]E[NMeA][dA]ALVSCA-NH2; thioether N-14)  0.1 µM
8. CC(C)C[C@@H]1NC(=O)[C@H](CCCNC(=N)N)NC(=O)[C@@H](CC(C)C)NC(=O)[C@H](C)N(C)C(=O)[C@H](CCCNC(=N)N)NC(=O)[C@H](Cc2ccc(-c3ccccc3)cc2)NC(=O)[C@H](C(C)C)NC(=O)[C@H](Cc2c[nH]c3ccccc23)NC(=O)[C@H](CC(=O)O)NC(=O)[C@H](Cc2ccncc2)NC(=O)[C@H](Cc2ccccc2)NC(=O)CSC[C@@H](C(=O)N[C@@H](C)C(N)=O)NC(=O)[C@H]([C@@H](C)O)NC(=O)[C@H](C(C)C)NC1=O [Compound 1085] ({CH2CO}-F[4Pal]DWV[Bip]R[NMeA][dL]RLVTCA-NH2; thioether N-14)  0.07 µM
9. CC(C)C[C@@H]1NC(=O)[C@H](Cc2c[nH]c3ccccc23)NC(=O)[C@H](CC(=O)O)NC(=O)[C@H](Cc2cccc(C(F)(F)F)c2)NC(=O)[C@H](Cc2ccccc2)NC(=O)CSC[C@@H](C(=O)N[C@@H](C)C(N)=O)NC(=O)[C@H](CO)NC(=O)[C@H](C(C)C)NC(=O)[C@H](CC(C)C)NC(=O)[C@H](CC(N)=O)NC(=O)[C@@H](C)NC(=O)[C@H](C)N(C)C(=O)[C@H](C(C)C)NC(=O)[C@H](Cc2ccc(-c3ccccc3)cc2)NC1=O [Compound 1777] ({CH2CO}-F[Phe(3-CF3)]DWL[Bip]V[NMeA][dA]NLVSCA-NH2; thioether N-14)  0.06 µM
10. CC(C)C[C@@H]1NC(=O)[C@H](Cc2c[nH]c3ccccc23)NC(=O)[C@H](CC(=O)O)NC(=O)[C@H](Cc2ccc(O)cc2)NC(=O)[C@H](Cc2ccccc2)NC(=O)CSC[C@@H](C(=O)NCC(N)=O)NC(=O)[C@H]([C@@H](C)O)NC(=O)[C@H](C(C)C)NC(=O)[C@H](CC(C)C)NC(=O)[C@H](CC(N)=O)NC(=O)[C@@H](C)NC(=O)[C@H](C)N(C)C(=O)[C@H](C(C)C)NC(=O)[C@H](Cc2ccc(-c3ccccc3)cc2)NC1=O [Compound 1476] ({CH2CO}-FYDWL[Bip]V[NMeA][dA]NLVTCG-NH2; thioether N-14)  0.06 µM
11. CCCC[C@@H]1NC(=O)[C@H](CCCNC(=N)N)NC(=O)[C@@H](CC(C)C)NC(=O)[C@H](C)N(C)C(=O)[C@H](CCCNC(N)=O)NC(=O)[C@H](Cc2ccc(-c3ccccc3)cc2)NC(=O)[C@H](C(C)C)NC(=O)[C@H](Cc2c[nH]c3ccccc23)NC(=O)[C@H](CC(=O)O)NC(=O)[C@H](Cc2ccc(O)cc2)NC(=O)[C@H](CC(N)=O)NC(=O)CSC[C@@H](C(=O)N[C@@H](C)C(N)=O)NC(=O)[C@H]([C@@H](C)O)NC(=O)[C@H](C(C)C)NC1=O [Compound 1285] ({CH2CO}-NYDWV[Bip][Cit][NMeA][dL]R[Nle]VTCA-NH2; thioether N-14)  0.05 µM
12. CC(C)C[C@@H]1NC(=O)[C@H](CCN)NC(=O)[C@@H](CC(C)C)NC(=O)[C@H](C)N(C)C(=O)[C@H](CCCNC(N)=O)NC(=O)[C@H](Cc2ccc(-c3ccccc3)cc2)NC(=O)[C@H](C(C)C)NC(=O)[C@H](Cc2c[nH]c3ccccc23)NC(=O)[C@H](CC(=O)O)NC(=O)[C@H](Cc2ccc(O)cc2)NC(=O)[C@H](Cc2ccc3cnccc3c2)NC(=O)CSC[C@@H](C(=O)N[C@@H](C)C(N)=O)NC(=O)[C@H](C(C)O)NC(=O)[C@H](C(C)C)NC1=O (stereo partly drawn) [Compound 2037] ({CH2CO}-[X16]YDWV[Bip][Cit][NMeA][dL][Dab]LV[Thr(3ξ)]CA-NH2; thioether N-14)  0.02 µM
13. CCC(C)[C@@H]1NC(=O)[C@H](Cc2ccc(-c3ccccc3)cc2)NC(=O)[C@H](C(C)C)NC(=O)[C@H](Cc2c[nH]c3ccccc23)NC(=O)[C@H](CC(=O)O)NC(=O)[C@H](Cc2ccc(O)cc2)NC(=O)[C@H](CC(N)=O)NC(=O)CSC[C@@H](C(=O)N[C@@H](C)C(N)=O)NC(=O)[C@H](C(C)O)NC(=O)[C@H](C(C)C)NC(=O)[C@H](CC2CCCCC2)NC(=O)[C@H](CCN)NC(=O)[C@@H](CC(C)C)NC(=O)[C@H](C)N(C)C1=O (stereo partly drawn) [Compound 2061] ({CH2CO}-NYDWV[Bip][Ile(3ξ)][NMeA][dL][Dab][Cha]V[Thr(3ξ)]CA-NH2; thioether N-14)  0.01 µM
14. CC(=O)NCCCC[C@@H]1NC(=O)[C@H](C(C)C)NC(=O)[C@H](CC2CCCCC2)NC(=O)[C@H](CCN)NC(=O)[C@@H](CC(C)C)NC(=O)[C@H](C)N(C)C(=O)[C@H](CCC(N)=O)NC(=O)[C@H](Cc2ccc(-c3ccccc3)cc2)NC(=O)[C@H](C(C)C)NC(=O)[C@H](Cc2cccc(C)c2)NC(=O)[C@H](CC(=O)O)NC(=O)[C@H](Cc2ccc(OCC(=O)O)cc2)NC(=O)[C@H](Cc2ccc(OCC(=O)O)cc2)NC(=O)CSC[C@@H](C(=O)N[C@@H](CCN)C(N)=O)NC1=O [Compound 2129] ({CH2CO}-Y(Carboxymethyl)Y(Carboxymethyl)D[Phe(3-Me)]V[Bip]Q[NMeA][dL][Dab][Cha]VK(Ac)C[Dab]-NH2; thioether N-14)  0.01 µM
15. CC(C)C[C@@H]1NC(=O)[C@H](Cc2c[nH]c3ccccc23)NC(=O)[C@H](CC(=O)O)NC(=O)[C@H](Cc2ccc(C(=O)O)cc2)NC(=O)[C@H](Cc2ccc(OCC(=O)O)cc2)NC(=O)CSC[C@@H](C(=O)N[C@@H](CCN)C(N)=O)NC(=O)[C@H](CO)NC(=O)[C@H](C(C)(C)O)NC(=O)[C@H](CC2CCCCC2)NC(=O)[C@H](CCN)NC(=O)[C@@H](CC(C)C)NC(=O)[C@H](C)N(C)C(=O)[C@H](C(C)(C)O)NC(=O)[C@H](Cc2ccc(-c3ccccc3)cc2)NC1=O [Compound 1716] ({CH2CO}-Y(Carboxymethyl)[Phe(4-COOH)]DWL[Bip][Val(3-OH)][NMeA][dL][Dab][Cha][Val(3-OH)]SC[Dab]-NH2; thioether N-14)  0.01 µM
